Assays:
VchCAγ = molecular target: T1, VchCAγ; format: biochemical, Vibrio cholerae; settings: CO2 […], […] TRIS pH […] Na2SO4, […] °C, […] min preincubation
T1 construct: gene VchCAgamma

VchCAβ = molecular target: T2, VchCAβ (Vibrio cholerae, UniProt A0A086SLX8); format: biochemical; settings: read-out: VchCAβ; CO2 […], […] TRIS pH […] Na2SO4, […] °C, […] min preincubation
T2 construct: gene can

hCA VII = molecular target: T3, hCA VII (Homo sapiens, UniProt P43166); format: biochemical
T3 construct: gene CA7; recombinant
T3 sequence (P43166 whole entry): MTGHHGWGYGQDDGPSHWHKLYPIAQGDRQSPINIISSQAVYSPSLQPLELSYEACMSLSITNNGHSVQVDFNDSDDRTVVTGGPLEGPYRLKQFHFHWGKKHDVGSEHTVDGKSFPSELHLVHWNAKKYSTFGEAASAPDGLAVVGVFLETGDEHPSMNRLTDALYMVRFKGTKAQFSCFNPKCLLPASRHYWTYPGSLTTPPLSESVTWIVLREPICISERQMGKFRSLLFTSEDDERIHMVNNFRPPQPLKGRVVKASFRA

hCA II = molecular target: T4, hCA II (Homo sapiens, UniProt P00918); format: biochemical
T4 construct: gene CA2; recombinant

MgCA = molecular target: T5, MgCA (Malassezia globosa, UniProt A8Q1N3); assay: biochemical
T5 construct: gene MGL_1814
T5 sequence (A8Q1N3 1-241): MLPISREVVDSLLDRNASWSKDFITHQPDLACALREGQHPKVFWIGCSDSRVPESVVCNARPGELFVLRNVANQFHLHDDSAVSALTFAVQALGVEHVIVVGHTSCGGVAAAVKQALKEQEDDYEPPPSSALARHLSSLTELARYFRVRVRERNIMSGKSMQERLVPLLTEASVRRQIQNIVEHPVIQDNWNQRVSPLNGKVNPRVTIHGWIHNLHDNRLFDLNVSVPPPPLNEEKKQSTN

hCA I = molecular target: T6, hCA I (Homo sapiens, UniProt P00915); format: biochemical
T6 construct: gene CA1; recombinant
T6 sequence (P00915 2-261): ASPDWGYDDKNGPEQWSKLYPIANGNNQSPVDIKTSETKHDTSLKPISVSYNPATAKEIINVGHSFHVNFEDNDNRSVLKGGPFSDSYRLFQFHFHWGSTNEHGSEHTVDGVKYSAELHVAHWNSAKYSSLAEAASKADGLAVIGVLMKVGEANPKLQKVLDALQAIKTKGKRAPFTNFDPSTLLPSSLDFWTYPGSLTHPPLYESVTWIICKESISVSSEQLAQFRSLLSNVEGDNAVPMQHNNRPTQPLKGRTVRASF

T2 sequence (A0A086SLX8 1-222): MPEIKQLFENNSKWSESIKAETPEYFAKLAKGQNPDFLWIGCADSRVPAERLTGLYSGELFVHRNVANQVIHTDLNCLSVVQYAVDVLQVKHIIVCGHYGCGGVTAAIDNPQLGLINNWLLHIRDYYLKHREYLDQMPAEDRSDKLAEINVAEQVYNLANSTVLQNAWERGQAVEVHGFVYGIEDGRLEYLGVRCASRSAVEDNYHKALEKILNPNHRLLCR

Structure (SMILES)	Ki (VchCAγ) [nM]	Ki (VchCAβ) [nM]	Ki (hCA VII) [nM]	Ki (hCA II) [nM]	Ki (MgCA) [nM]	Ki (hCA I) [nM]
COC(=O)C(NC(=O)c1ccc(S(N)(=O)=O)cc1)C(C)C (racemic) [3f, Methyl (4-Sulfamoylbenzoyl)-DL-Valinate]	4460	8170	3.7	4.5	5500	57.8
COC(=O)C(C)NC(=O)c1ccc(S(N)(=O)=O)cc1 (racemic) [3j, Methyl (4-Sulfamoylbenzoyl)-DL-Alaninate]	271	412	3.7	6.1	87.3	85.3
CCNC(=O)c1ccc(S(N)(=O)=O)cc1 [3a, N-Ethyl-4-Sulfamoylbenzamide]	929	7080	26.7	5.3	7670	334
CCCNC(=O)c1ccc(S(N)(=O)=O)cc1 [3b, N-Propyl-4-Sulfamoylbenzamide]	636	7680	0.4	3.5	3920	8.2
C#CCNC(=O)c1ccc(S(N)(=O)=O)cc1 [3c, N-(Prop-2-Yn-1-Yl)-4-Sulfamoylbenzamide]	383	741	0.6		5780	
NS(=O)(=O)c1ccc(C(=O)N2CCOCC2)cc1 [3d, 4-(Morpholine-4-Carbonyl)Benzenesulfonamide]	693	8590	0.8	6.2	5880	8.7
NS(=O)(=O)c1ccc(C(=O)N2CCCCC2)cc1 [3e, 4-(Piperidine-1-Carbonyl)Benzenesulfonamide]	453	749			3980	
COC(=O)CC[C@@H](NC(=O)c1ccc(S(N)(=O)=O)cc1)C(=O)OC [3g, Dimethyl (4-Sulfamoylbenzoyl)-D-Glutamate]	503	862	0.6	5.2	632	8.2
COC(=O)[C@H](CC(C)C)NC(=O)c1ccc(S(N)(=O)=O)cc1 [3h, Methyl (4-Sulfamoylbenzoyl)-L-Leucinate]	891	719	0.4	3.7	763	5.6
COC(=O)C[C@@H](NC(=O)c1ccc(S(N)(=O)=O)cc1)C(=O)OC [3i, Dimethyl (4-Sulfamoylbenzoyl)-D-Aspartate]	744	910	0.7	6.1	6950	75.7
CCOC(=O)CCCNC(=O)c1ccc(S(N)(=O)=O)cc1 [3k, Ethyl 4-(4-Sulfamoylbenzamido)Butanoate]	756	953	0.4	4	6690	5.3
COC(=O)[C@H](Cc1ccccc1)NC(=O)c1ccc(S(N)(=O)=O)cc1 [3l, Methyl (4-Sulfamoylbenzoyl)-L-Phenylalaninate]	409	663	0.5	3.3	517	5.6
